Laboratory results published in ChEMBL document CHEMBL4342421, “Current scenario of tetrazole hybrids for antibacterial activity” (Eur J Med Chem, 2019).
Converted amounts (≈) assume the structure as drawn. Blank lines part the entries; values can stand above or below the compound they belong to.

What was measured:
Bacillus thuringiensis = test: Antimicrobial activity against Bacillus thuringiensis; assay type: functional
Bacillus subtilis [1] = test: Antimicrobial activity against Bacillus subtilis; assay type: functional
Prescottella equi = test: Antimicrobial activity against Rhodococcus equi; assay type: functional; settings: Rhodococcus (subgen. Prescottella) equi
Proteus vulgaris = test: Antimicrobial activity against Proteus vulgaris; assay type: functional
Staphylococcus aureus [2] = test: Antimicrobial activity against Staphylococcus aureus ATCC 25923 assessed as zone of inhibition at 100 ug/ml after 24 hrs by disc diffusion method; assay type: functional; settings: ATCC 25923, 24 h, read-out: IZ
Proteus mirabilis [3] = test: Antimicrobial activity against Proteus mirabilis; assay type: functional
Bacillus subtilis [4] = test: Antimicrobial activity against Bacillus subtilis assessed as zone of inhibition at 5 mg/ml after 24 to 48 hrs by well diffusion method; assay type: functional; settings: read-out: IZ
Streptococcus pneumoniae = test: Antimicrobial activity against Streptococcus pneumoniae; assay type: functional
Staphylococcus aureus [5] = test: Antimicrobial activity against Staphylococcus aureus assessed as zone of inhibition at 5 mg/ml after 24 to 48 hrs by well diffusion method; assay type: functional; settings: read-out: IZ
Salmonella typhimurium = test: Antimicrobial activity against Salmonella typhimurium; assay type: functional, Salmonella enterica subsp. enterica serovar Typhimurium; settings: Salmonella enterica
Talaromyces marneffei = test: Antifungal activity against Penicillium marneffei after 3 to 4 days; assay type: functional
Klebsiella pneumoniae [6] = test: Antimicrobial activity against Klebsiella pneumoniae after 24 hrs by disc diffusion method; assay type: functional
Escherichia coli [7] = test: Antimicrobial activity against Escherichia coli ATCC 25922 after 24 hrs by disc diffusion method; assay type: functional; settings: ATCC 25922, 24 h
Klebsiella pneumoniae [8] = test: Antimicrobial activity against Klebsiella pneumoniae after 24 hrs by agar disk diffusion method; assay type: functional
Escherichia coli [9] = test: Antimicrobial activity against Escherichia coli after 24 hrs by agar disk diffusion method; assay type: functional
Pseudomonas aeruginosa [10] = test: Antimicrobial activity against Pseudomonas aeruginosa ATCC 27853 after 24 hrs by disc diffusion method; assay type: functional; settings: ATCC 27853, 24 h
Aspergillus flavus = test: Antifungal activity against Aspergillus flavus NCIM 524 after 3 to 4 days; assay type: functional
Pseudomonas aeruginosa [11] = test: Antimicrobial activity against Pseudomonas aeruginosa after 24 hrs by agar disk diffusion method; assay type: functional
Staphylococcus aureus [12] = test: Antimicrobial activity against Staphylococcus aureus ATCC 25923 after 24 hrs by disc diffusion method; assay type: functional; settings: ATCC 25923, 24 h
Proteus mirabilis [13] = test: Antimicrobial activity against Proteus mirabilis after 24 hrs by agar disk diffusion method; assay type: functional
[14] = tested on: Trichophyton mentagrophytes; test: Antifungal activity against Trichophyton mentagrophytes after 3 to 4 days; assay type: functional
Aspergillus fumigatus = test: Antifungal activity against Aspergillus fumigatus NCIM 902 after 3 to 4 days; assay type: functional
Streptomyces = test: Antimicrobial activity against Streptomyces assessed as zone of inhibition at 10 ug/ml; assay type: functional; settings: read-out: IZ
Bacillus subtilis [15] = test: Antimicrobial activity against Bacillus subtilis assessed as zone of inhibition at 10 ug/ml; assay type: functional; settings: read-out: IZ
Candida albicans = test: Antifungal activity against Candida albicans assessed as zone of inhibition at 10 ug/ml; assay type: functional; settings: read-out: IZ
Aspergillus niger = test: Antifungal activity against Aspergillus niger assessed as zone of inhibition at 10 ug/ml; assay type: functional; settings: read-out: IZ
Escherichia coli [16] = test: Antimicrobial activity against Escherichia coli assessed as zone of inhibition at 10 ug/ml; assay type: functional; settings: read-out: IZ
Pseudomonas = test: Antimicrobial activity against Pseudomonas assessed as zone of inhibition at 10 ug/ml; assay type: functional; settings: read-out: IZ
Lactococcus lactis = test: Antimicrobial activity against Streptococcus lactis assessed as zone of inhibition at 10 ug/ml; assay type: functional; settings: read-out: IZ
Penicillium = test: Antifungal activity against Penicillium assessed as zone of inhibition at 10 ug/ml; assay type: functional; settings: read-out: IZ
[17] = Antifungal activity against Rhodotorula ingeniosa assessed as zone of inhibition at 10 ug/ml; assay type: functional; settings: Sampaiozyma ingeniosa; read-out: IZ
Escherichia coli [18] = test: Antimicrobial activity against Escherichia coli assessed as zone of inhibition at 0.001 mol/cm3; assay type: functional
Staphylococcus aureus [19] = test: Antimicrobial activity against Staphylococcus aureus assessed as zone of inhibition at 0.001 mol/cm3; assay type: functional
Bacillus cereus = test: Antimicrobial activity against Bacillus cereus assessed as zone of inhibition at 0.001 mol/cm3; assay type: functional

MIC (Bacillus thuringiensis): 0.063 to 8 µg/mL (≈ 0.188 to 23.9 µM) | MIC (Bacillus subtilis [1]): 0.063 to 8 µg/mL (≈ 0.188 to 23.9 µM) | MIC (Prescottella equi): 0.063 to 8 µg/mL (≈ 0.188 to 23.9 µM) | MIC (Proteus vulgaris): 0.063 to 8 µg/mL (≈ 0.188 to 23.9 µM) | MIC (Proteus mirabilis [3]): 0.063 to 8 µg/mL (≈ 0.188 to 23.9 µM) | MIC (Streptococcus pneumoniae): 0.063 to 8 µg/mL (≈ 0.188 to 23.9 µM) | MIC (Salmonella typhimurium): 0.063 to 8 µg/mL (≈ 0.188 to 23.9 µM)
SMILES: CC1(C)S[C@@H]2[C@H](NC(=O)Cc3ccccc3)C(=O)N2[C@H]1C(=O)O [PENICILLIN G]
zone of inhibition at 100 µg/mL (Staphylococcus aureus [2]): 10 to 24 mm | zone of inhibition at 5000 µg/mL (Bacillus subtilis [4]): 26.2 mm | zone of inhibition at 5000 µg/mL (Staphylococcus aureus [5]): 24.6 mm

MIC (Talaromyces marneffei): 6.25 to 50 µg/mL (≈ 15.2 to 122 µM) | MIC (Klebsiella pneumoniae [6]): 6.25 to 50 µg/mL (≈ 15.2 to 122 µM) | MIC (Escherichia coli [7]): 6.25 to 50 µg/mL (≈ 15.2 to 122 µM) | MIC (Klebsiella pneumoniae [8]): 6.25 µg/mL (≈ 15.2 µM) | MIC (Escherichia coli [9]): 6.25 µg/mL (≈ 15.2 µM) | MIC (Pseudomonas aeruginosa [10]): 6.25 to 50 µg/mL (≈ 15.2 to 122 µM) | MIC (Aspergillus flavus): 6.25 to 50 µg/mL (≈ 15.2 to 122 µM) | MIC (Pseudomonas aeruginosa [11]): 6.25 µg/mL (≈ 15.2 µM) | MIC (Staphylococcus aureus [12]): 6.25 to 50 µg/mL (≈ 15.2 to 122 µM) | MIC (Proteus mirabilis [13]): 6.25 µg/mL (≈ 15.2 µM) | MIC [14]: 6.25 to 50 µg/mL (≈ 15.2 to 122 µM) | MIC (Aspergillus fumigatus): 6.25 to 50 µg/mL (≈ 15.2 to 122 µM)
SMILES: c1ccc(Cn2nnnc2SCCCSc2nnnn2-c2ccccc2)cc1

MIC (Talaromyces marneffei): 6.25 to 50 µg/mL (≈ 17.9 to 143 µM) | MIC (Klebsiella pneumoniae [6]): 6.25 to 50 µg/mL (≈ 17.9 to 143 µM) | MIC (Escherichia coli [7]): 6.25 to 50 µg/mL (≈ 17.9 to 143 µM) | MIC (Pseudomonas aeruginosa [10]): 6.25 to 50 µg/mL (≈ 17.9 to 143 µM) | MIC (Aspergillus flavus): 6.25 to 50 µg/mL (≈ 17.9 to 143 µM) | MIC (Staphylococcus aureus [12]): 6.25 to 50 µg/mL (≈ 17.9 to 143 µM) | MIC [14]: 6.25 to 50 µg/mL (≈ 17.9 to 143 µM) | MIC (Aspergillus fumigatus): 6.25 to 50 µg/mL (≈ 17.9 to 143 µM)
SMILES: CCn1nnnc1SCCCSc1nnnn1-c1ccccc1

SMILES: OC[C@H]1O[C@H](n2nnnc2Cn2nnc3ccccc32)[C@H](O)[C@@H](O)[C@@H]1O
zone of inhibition at 10 µg/mL (Streptomyces): 11 to 15 mm | zone of inhibition at 10 µg/mL (Bacillus subtilis [15]): 11 to 15 mm | zone of inhibition at 10 µg/mL (Candida albicans): 11 to 15 mm | zone of inhibition at 10 µg/mL (Aspergillus niger): 11 to 15 mm | zone of inhibition at 10 µg/mL (Escherichia coli [16]): 11 to 15 mm | zone of inhibition at 10 µg/mL (Pseudomonas): 11 to 15 mm | zone of inhibition at 10 µg/mL (Lactococcus lactis): 11 to 15 mm | zone of inhibition at 10 µg/mL (Penicillium): 11 to 15 mm | zone of inhibition at 10 µg/mL [17]: 11 to 15 mm

SMILES: C[C@H]1COc2c(N3CCN(C)CC3)c(F)cc3c(=O)c(C(=O)O)cn1c23.C[C@H]1COc2c(N3CCN(C)CC3)c(F)cc3c(=O)c(C(=O)O)cn1c23.O [LEVOFLOXACIN]
inhibition zone (IZ) (Escherichia coli [18]): 28 - 30 mm | inhibition zone (IZ) (Staphylococcus aureus [19]): 28 - 30 mm | inhibition zone (IZ) (Bacillus cereus): 28 - 30 mm

SMILES: CC(=O)OC[C@H]1O[C@H](n2nnnc2Cn2nnc3ccccc32)[C@H](OC(C)=O)[C@@H](OC(C)=O)[C@@H]1OC(C)=O
zone of inhibition at 10 µg/mL (Streptomyces): 15 to 17 mm | zone of inhibition at 10 µg/mL (Bacillus subtilis [15]): 15 to 17 mm | zone of inhibition at 10 µg/mL (Candida albicans): 15 to 17 mm | zone of inhibition at 10 µg/mL (Aspergillus niger): 15 to 17 mm | zone of inhibition at 10 µg/mL (Escherichia coli [16]): 15 to 17 mm | zone of inhibition at 10 µg/mL (Pseudomonas): 15 to 17 mm | zone of inhibition at 10 µg/mL (Lactococcus lactis): 15 to 17 mm | zone of inhibition at 10 µg/mL (Penicillium): 15 to 17 mm | zone of inhibition at 10 µg/mL [17]: 15 to 17 mm

SMILES: c1ccc2c(c1)nnn2Cc1nnn[nH]1
zone of inhibition at 10 µg/mL (Streptomyces): 11 to 16 mm | zone of inhibition at 10 µg/mL (Bacillus subtilis [15]): 11 to 16 mm | zone of inhibition at 10 µg/mL (Candida albicans): 11 to 16 mm | zone of inhibition at 10 µg/mL (Aspergillus niger): 11 to 16 mm | zone of inhibition at 10 µg/mL (Escherichia coli [16]): 11 to 16 mm | zone of inhibition at 10 µg/mL (Pseudomonas): 11 to 16 mm | zone of inhibition at 10 µg/mL (Lactococcus lactis): 11 to 16 mm | zone of inhibition at 10 µg/mL (Penicillium): 11 to 16 mm | zone of inhibition at 10 µg/mL [17]: 11 to 16 mm

MIC (Talaromyces marneffei): 6.25 to 50 µg/mL (≈ 17.3 to 139 µM) | MIC (Klebsiella pneumoniae [6]): 6.25 to 50 µg/mL (≈ 17.3 to 139 µM) | MIC (Escherichia coli [7]): 6.25 to 50 µg/mL (≈ 17.3 to 139 µM) | MIC (Pseudomonas aeruginosa [10]): 6.25 to 50 µg/mL (≈ 17.3 to 139 µM) | MIC (Aspergillus flavus): 6.25 to 50 µg/mL (≈ 17.3 to 139 µM) | MIC (Staphylococcus aureus [12]): 6.25 to 50 µg/mL (≈ 17.3 to 139 µM) | MIC [14]: 6.25 to 50 µg/mL (≈ 17.3 to 139 µM) | MIC (Aspergillus fumigatus): 6.25 to 50 µg/mL (≈ 17.3 to 139 µM)
SMILES: c1ccc(-n2nnnc2SCCCSc2nnnn2C2CC2)cc1

SMILES: CCOC(=O)c1c(-n2cnnn2)sc(C(=O)c2ccccc2)c1C
inhibition zone (IZ) (Escherichia coli [18]): 22 - 24 mm | inhibition zone (IZ) (Staphylococcus aureus [19]): 22 - 24 mm | inhibition zone (IZ) (Bacillus cereus): 22 - 24 mm

SMILES: Cc1c(C(=O)c2ccccc2)sc(-n2cnnn2)c1C(=O)O
inhibition zone (IZ) (Escherichia coli [18]): 17 - 24 mm | inhibition zone (IZ) (Staphylococcus aureus [19]): 17 - 24 mm | inhibition zone (IZ) (Bacillus cereus): 17 - 24 mm

MIC (Klebsiella pneumoniae [8]): 6.25 µg/mL (≈ 8.86 µM) | MIC (Escherichia coli [9]): 6.25 µg/mL (≈ 8.86 µM) | MIC (Pseudomonas aeruginosa [11]): 6.25 µg/mL (≈ 8.86 µM) | MIC (Proteus mirabilis [13]): 6.25 µg/mL (≈ 8.86 µM)
SMILES: CCC(C)n1ncn(-c2ccc(N3CCN(c4ccc(OCC5COC(Cn6cncn6)(c6ccc(Cl)cc6Cl)O5)cc4)CC3)cc2)c1=O (stereo not drawn) [ITRACONAZOLE]
